# Results as given in patent US12528784B2, “Alkynyl-(heteroaryl)-carboxamide HCN1 inhibitors” (Hoffmann-La Roche Inc., priority 2019, dated 2026).
# Legend:
# HCN2 = target: T1, HCN2 (Homo sapiens, UniProt Q9UL51); test: HCN2 automated patch clamp current inhibition assay (Ionworks Barracuda); assay type: cell-based; conditions: HEK-293 cells stably expressing HCN2; current inhibition during a hyperpolarizing pulse of -100 mV
# T1 construct: expressed in transfected cells
# T1 sequence (Q9UL51 1-889): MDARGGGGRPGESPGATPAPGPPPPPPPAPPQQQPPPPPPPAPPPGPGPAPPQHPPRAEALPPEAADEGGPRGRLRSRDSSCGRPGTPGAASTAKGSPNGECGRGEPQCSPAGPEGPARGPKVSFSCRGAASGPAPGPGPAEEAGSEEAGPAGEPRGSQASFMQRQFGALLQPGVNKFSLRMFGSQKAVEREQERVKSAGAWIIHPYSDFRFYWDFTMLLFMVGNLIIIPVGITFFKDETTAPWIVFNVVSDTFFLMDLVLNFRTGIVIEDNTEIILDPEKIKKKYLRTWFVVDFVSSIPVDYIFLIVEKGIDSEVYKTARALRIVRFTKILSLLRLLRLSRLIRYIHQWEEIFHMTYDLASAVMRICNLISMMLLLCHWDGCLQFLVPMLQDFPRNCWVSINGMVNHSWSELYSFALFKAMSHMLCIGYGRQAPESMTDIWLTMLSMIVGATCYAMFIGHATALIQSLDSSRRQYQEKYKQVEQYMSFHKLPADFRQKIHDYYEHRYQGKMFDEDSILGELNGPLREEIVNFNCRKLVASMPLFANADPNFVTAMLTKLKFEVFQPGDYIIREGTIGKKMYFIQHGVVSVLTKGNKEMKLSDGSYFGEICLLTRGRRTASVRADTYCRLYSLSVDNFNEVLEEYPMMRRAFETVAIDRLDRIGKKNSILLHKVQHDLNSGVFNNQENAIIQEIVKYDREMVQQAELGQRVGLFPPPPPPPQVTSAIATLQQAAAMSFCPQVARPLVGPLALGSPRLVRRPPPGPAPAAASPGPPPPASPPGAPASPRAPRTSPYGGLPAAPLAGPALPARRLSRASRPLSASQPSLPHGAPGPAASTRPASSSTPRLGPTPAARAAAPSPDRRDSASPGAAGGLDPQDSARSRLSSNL
# Procedure: (§1) In vitro, high-throughput cellular electrophysiology was employed to detect voltage- and use-dependence of compounds in single concentration screening and IC50 determination for library and medicinal chemistry profiling compounds in 384 well plates.
# (§2) Cell cultures were maintained in DMEM/F12 cell growth media containing FBS and appropriate antibiotics at 37° C., 5% CO2 for a maximum of 20 passages. At a time point of 40-72 hours prior to assay, the expression of HCN protein in the cells is induced by addition of tetracyclin. Cells may be incubated at 27° C. for 2-24 hours of induction. […] Cells were harvested at 80% confluency and resuspended in extracellular buffer and added to wells. A freshly prepared Escin solution was added to intracellular buffer and applied to establish whole cell recording via perforated patch clampling by APC.
# (§3) Currents through activated channels were measured directly by APC by employing hyperpolarizing voltage steps. The activation window was increased and stabilized by the addition of cell permeable Br-cAMP. Baselines were established for both use- and voltage-dependence protocols using a −30 mV holding potential and multiple test pulses at −100 mV or by 20 mV steps from −120 to 0 mV, respectively. Test compounds were added after baseline recordings followed by a 10 min incubation, voltage-dependency protocol recording, and use-dependency recording. Data was corrected for baseline and rundown (well based) and normalized for % inhibition (plate based). Five previously reported HCN inhibitors of varying potencies and selectivities and zatebradine were used for run to run and plate to plate quality controls. […] Percent inhibition was analysed at −80, −100, −120 mV of the voltage-dependency protocol and at pulse 0 and 50 of the use-dependency protocols. Selectivity was assessed against HCN2, HCN3, and HCN4 overexpressing cell lines using similar methods. As HCN4 has a slower activation than the other HCN channels, activation was extended to achieve steady state activation.
# HCN4 = target: T2, HCN4 (Homo sapiens, UniProt Q9Y3Q4); test: HCN4 automated patch clamp current inhibition assay (Ionworks Barracuda); assay type: cell-based; conditions: HEK-293 cells stably expressing HCN4; current inhibition during a hyperpolarizing pulse of -100 mV
# T2 construct: expressed in transfected cells
# T2 sequence (Q9Y3Q4 1-1203): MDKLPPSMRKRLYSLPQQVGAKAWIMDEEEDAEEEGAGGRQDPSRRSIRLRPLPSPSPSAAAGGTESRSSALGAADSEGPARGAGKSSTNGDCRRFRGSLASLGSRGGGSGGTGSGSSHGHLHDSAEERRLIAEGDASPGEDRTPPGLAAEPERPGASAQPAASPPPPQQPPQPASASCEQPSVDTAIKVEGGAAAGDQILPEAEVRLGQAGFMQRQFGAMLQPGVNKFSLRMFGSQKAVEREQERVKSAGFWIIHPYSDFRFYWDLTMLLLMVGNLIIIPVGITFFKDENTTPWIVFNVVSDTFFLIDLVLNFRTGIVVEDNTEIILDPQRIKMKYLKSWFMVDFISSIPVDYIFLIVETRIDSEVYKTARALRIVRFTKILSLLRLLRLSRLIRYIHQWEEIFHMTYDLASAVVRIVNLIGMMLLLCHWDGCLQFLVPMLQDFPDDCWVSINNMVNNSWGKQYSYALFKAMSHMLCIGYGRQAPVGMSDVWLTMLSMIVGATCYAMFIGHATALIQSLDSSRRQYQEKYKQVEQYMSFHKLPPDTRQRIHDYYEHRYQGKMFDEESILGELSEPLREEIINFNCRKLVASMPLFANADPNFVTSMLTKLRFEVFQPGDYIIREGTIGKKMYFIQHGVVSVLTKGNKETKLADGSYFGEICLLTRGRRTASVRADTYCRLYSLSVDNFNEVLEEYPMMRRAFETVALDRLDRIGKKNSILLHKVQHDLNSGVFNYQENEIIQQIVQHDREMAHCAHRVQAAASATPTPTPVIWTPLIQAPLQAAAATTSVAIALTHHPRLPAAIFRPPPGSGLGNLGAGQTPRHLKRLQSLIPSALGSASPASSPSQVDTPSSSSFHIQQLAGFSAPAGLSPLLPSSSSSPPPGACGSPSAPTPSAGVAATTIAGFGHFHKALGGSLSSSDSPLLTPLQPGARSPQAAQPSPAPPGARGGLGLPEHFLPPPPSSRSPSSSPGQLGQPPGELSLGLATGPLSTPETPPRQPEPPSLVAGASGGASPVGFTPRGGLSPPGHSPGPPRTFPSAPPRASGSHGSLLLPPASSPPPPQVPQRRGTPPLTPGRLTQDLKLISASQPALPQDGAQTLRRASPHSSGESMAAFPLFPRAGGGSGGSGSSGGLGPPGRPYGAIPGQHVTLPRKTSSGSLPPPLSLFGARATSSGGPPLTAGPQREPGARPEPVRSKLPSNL
# Procedure: as §1, §2, §3
Compound,IC50 (HCN2) [µM],IC50 (HCN4) [µM]
"Cc1cnc(-n2c(C(N)=O)nc(C#Cc3ccnc(Cl)c3C)c2C)cn1 [Example 23, 4-[2-(2-Chloro-3-methyl-4-pyridyl)ethynyl]-5-methyl-1-(5-methylpyrazin-2-yl)imidazole-2-carboxamide]",> 40,> 40
"Cc1ccc(-n2c(C(N)=O)cc(C#Cc3ccnc(Cl)c3)c2C)cn1 [Example 31, 4-[2-(2-Chloro-4-pyridyl)ethynyl]-5-methyl-1-(6-methyl-3-pyridyl)pyrrole-2-carboxamide]",> 40,> 40
"Cc1cccc(C#Cc2nc(C(N)=O)n(-c3ccc(C)nc3)c2C)c1 [Example 10, 5-Methyl-1-(6-methylpyridin-3-yl)-4-(m-tolylethynyl)-1H-imidazole-2-carboxamide]",> 40,> 40
"Cc1ccc(-n2c(C(N)=O)nc(C#Cc3ccnc(Cl)c3)c2C)cn1 [Example 6, 4-(2-Chloro-pyridin-4-ylethynyl)-5-methyl-1-(6-methyl-pyridin-3-yl)-1H-imidazole-2-carboxylic Acid Amide]",> 40,> 40
"COc1ccc(-n2c(C(N)=O)nc(C#Cc3ccnc(Cl)c3C)c2C)cn1 [Example 27, 4-[2-(2-Chloro-3-methyl-4-pyridyl)ethynyl]-1-(6-methoxy-3-pyridyl)-5-methyl-imidazole-2-carboxamide]",> 40,> 40
"COc1cccc(C#Cc2nc(C(N)=O)n(-c3ccc(C)nc3)c2C)c1 [Example 8, 4-((3-Methoxyphenyl)ethynyl)-5-methyl-1-(6-methylpyridin-3-yl)-1H-imidazole-2-carboxamide]",> 40,> 40
"NC(=O)c1nc(C#Cc2ccnc(Cl)c2)cn1-c1ccc(F)cc1 [Example 42, 4-(2-Chloro-pyridin-4-ylethynyl)-1-(4-fluoro-phenyl)-1H-imidazole-2-carboxylic Acid Amide]",> 40,> 40
"Cc1c(C#Cc2nc(C(N)=O)n(-c3ccc(Cl)nc3)c2C)ccnc1Cl [Example 26, 4-[2-(2-Chloro-3-methyl-4-pyridyl)ethynyl]-1-(6-chloro-3-pyridyl)-5-methyl-imidazole-2-carboxamide]",> 40,> 40
"Cc1ccc(-n2c(C(N)=O)nc(C#Cc3ccnc(Cl)c3C)c2C)cn1 [Example 1, 4-((2-Chloro-3-methylpyridin-4-yl)ethynyl)-5-methyl-1-(6-methylpyridin-3-yl)-1H-imidazole-2-carboxamide]",> 40,> 40
"Cc1ccc(-n2c(C(N)=O)nc(C#Cc3csc(Cl)c3)c2C)cn1 [Example 3, 4-[2-(5-Chlorothiophen-3-yl)ethynyl]-5-methyl-1-(6-methylpyridin-3-yl)imidazole-2-carboxamide]",> 40,> 40
"Cc1ccc(-n2c(C(N)=O)nc(C#Cc3cccc(C#N)c3)c2C)cn1 [Example 5, 4-((3-Cyanophenyl)ethynyl)-5-methyl-1-(6-methylpyridin-3-yl)-1H-imidazole-2-carboxamide]",> 40,> 40
"Cc1ccc(-n2c(C(N)=O)nc(C#Cc3ccnc(Cl)c3F)c2C)cn1 [Example 2, 4-((2-Chloro-3-fluoropyridin-4-yl)ethynyl)-5-methyl-1-(6-methylpyridin-3-yl)-1H-imidazole-2-carboxamide]",> 40,> 40
"Cc1ccc(-n2c(C(N)=O)nc(C#Cc3ccnc(Cl)c3)c2C)cc1 [Example 38, 4-[2-(2-Chloro-4-pyridyl)ethynyl]-5-methyl-1-(p-tolyl)imidazole-2-carboxamide]",> 40,> 40
"Cc1c(C#Cc2ccnc(Cl)c2)nc(C(N)=O)n1-c1ccc(Cl)cc1 [Example 39, 1-(4-Chlorophenyl)-4-((2-chloropyridin-4-yl)ethynyl)-5-methyl-1H-imidazole-2-carboxamide]",> 40,> 40
"Cc1ccc(-n2c(C(N)=O)nc(C#Cc3ccnc(Cl)c3C)c2C)nc1 [Example 28, 4-[2-(2-Chloro-3-methyl-4-pyridyl)ethynyl]-5-methyl-1-(5-methyl-2-pyridyl)imidazole-2-carboxamide]",> 40,> 40
"Cc1ccc(-c2c(C(N)=O)nc(C#Cc3ccnc(Cl)c3)n2C)cn1 [Example 32, 2-[2-(2-Chloro-4-pyridyl)ethynyl]-1-methyl-5-(6-methyl-3-pyridyl)imidazole-4-carboxamide]",> 40,> 40
"Cc1ccc(-n2c(C(N)=O)nc(C#Cc3cccc(Cl)c3)c2C)cn1 [Example 4, 4-[2-(3-Chlorophenyl)ethynyl]-5-methyl-1-(6-methyl-3-pyridyl)imidazole-2-carboxamide]",30.6,> 40
